# Results from patent EP0075895A2, “Pharmaceutical amides, and preparation, formulations and use thereof” (THE WELLCOME FOUNDATION LIMITED, priority 1981, dated 1983).
# Where a name gives a salt, the structure may show the parent alone.
# Target: T1, enkephalinase Al (Rattus norvegicus, UniProt P07861)
# T1 construct: the solubilised enzymes contained in the supernatent separated by DEAE-cellulose column chromatograph; from tissue; host or cells: rat striatum (washed membrane pellet, solubilised with Triton X-100, then DEAE-cellulose and Sephacryl S.300 chromatography)
# T1 sequence (P07861 1-750): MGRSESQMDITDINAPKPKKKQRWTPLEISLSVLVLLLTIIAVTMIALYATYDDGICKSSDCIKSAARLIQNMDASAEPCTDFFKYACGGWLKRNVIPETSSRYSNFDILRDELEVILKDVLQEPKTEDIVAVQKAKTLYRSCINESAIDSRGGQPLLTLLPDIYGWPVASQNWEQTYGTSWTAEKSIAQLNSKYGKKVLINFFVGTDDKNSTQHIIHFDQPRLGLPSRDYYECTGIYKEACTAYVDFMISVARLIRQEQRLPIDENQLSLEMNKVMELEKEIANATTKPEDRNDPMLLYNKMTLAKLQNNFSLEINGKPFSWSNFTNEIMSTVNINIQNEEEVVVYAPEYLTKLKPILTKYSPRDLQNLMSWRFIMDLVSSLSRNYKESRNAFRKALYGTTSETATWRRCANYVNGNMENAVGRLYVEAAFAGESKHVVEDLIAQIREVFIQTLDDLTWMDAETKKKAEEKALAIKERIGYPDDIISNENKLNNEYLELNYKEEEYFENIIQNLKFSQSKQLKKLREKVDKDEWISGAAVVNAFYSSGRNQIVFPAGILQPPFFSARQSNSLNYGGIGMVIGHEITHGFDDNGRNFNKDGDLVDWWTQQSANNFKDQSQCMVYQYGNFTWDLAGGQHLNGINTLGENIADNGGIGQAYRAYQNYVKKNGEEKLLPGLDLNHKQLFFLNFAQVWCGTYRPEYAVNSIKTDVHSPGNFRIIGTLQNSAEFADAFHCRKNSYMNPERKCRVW
# Assay: enkephalinase-inhibiting activity (3H-TGG generation from 3H-leucine enkephalin, TLC separation, scintillation counting)
# Type: biochemical, Rats
# Conditions: approximate IC50 determined graphically; concentration required for 50% inhibition of 3H-TGG generation; leucine enkephalin 5 x 10^-5M, 30°C
# Text: Rats were killed by decapitation and the striata dissected out on ice. […] The resulting supernatent was discarded and the remaining pellet washed three times.
# Enkephalinase-inhibiting activity was estimated by the following procedure.
row,Compound,IC50 [nM]
1,"O=C(O)CNC(=O)[C@H](Cc1ccccc1)NP(=O)(O)O [compound 2, N-Phosphoryl-L-phenylalanyl-glycine trisodium salt]",15
2,N-(Phosphoryl-phenylalanyl)leucine [compound 1],7
